{
  "source": "paper doi:10.1101/2021.05.05.442810v1",
  "about": "(biorxiv, 2021)",
  "biological_target": "truncated variant of M. xanthus ParB (NB and DNA-binding domains) (Myxococcus xanthus, UniProt Q1CVJ4)",
  "settings": "formed from CTPγS in crystallization; Mg2+; with thiophosphate; pH 8.5",
  "data": [
    {"smiles": "Nc1ccn([C@@H]2O[C@H](COP(=O)(O)OP(=O)(O)O)[C@@H](O)[C@H]2O)c(=O)n1", "note": "[CDP]", "values": [
      {"measurement": "X-ray crystal structure (1.9 Å)", "value": "we did not detect CTPγS but CDP"}
    ]}
  ]
}
